# Measured values from US20240190868A1, “SOS1 INHIBITORS” (Acerand Therapeutics (USA) Limited, priority 2022, published 2024).
# Tested on: cellular pERK in NCI-H1975 cells (EGFR/L858R-T790M)
# Assay: pERK potency assay (In Cell ELISA)
# Type: cell-based
# Conditions: Homo sapiens, 1 h compound incubation
# Description: The assay measures the ability of a compound to inhibit SOS1 function in cells. SOS1 activates RAS proteins by catalyzing the conversion of RAS GDP to RAS GTP in response to receptor tyrosine kinase activation. Activation of RAS induces a sequence of cellular signaling events that result in increased phosphorylation of ERK at Threonine 202 and Tyrosine 204 (pERK). The procedure (i.e., In Cell ELISA as described below) measures the level of cellular pERK in response to a test compound in NCI-H1975 cells (EGFR/L858R-T790M).
# First, NCI-H1975 cells were grown and maintained using media and procedures recommended by the ATCC. A day before compound addition, cells were plated in poly-D-lysine coated 96-well cell culture plates (Corning® BioCoat® Cat #356640) at 25000 cells/well/100 μL and grown overnight in an incubator at 37° C. with 5% CO2. A solution of a test compound was prepared with 3-fold serial dilutions in DMSO having a top concentration of 6 mM. On the day of the assay, 50 μL of a test compound dilution in media was added to each well of cell culture plate with a final compound concentration in the range of 0.001 μM to 20 μM. After addition of the compound, cells were incubated for 1 h at 37° C. with 5% CO2, after which the culture medium was removed. Cells were fixed with 4% formaldehyde in phosphate-buffered saline (PBS) and incubated at RT for 20 min. The plate was washed three times with PBST (PBS with 0.05% Tween®-20), followed by incubation with 100 μL of pre-cooled methanol at −20° C. for 20 min. After incubation, methanol was removed. The plate was again washed with PBST. Cells were then permeabilized with 100 μL/well of 0.1% Triton X-100 in PBS at RT for 20 min and then quenched with a quenching buffer (PBST containing 1% H2O2 and 0.1% sodium azide) for 20 min at RT with gentle shaking. After washing once with PBST, a blocking buffer (250 uL/well, Pierce™ Protein-Free-PBS Blocking Buffer, Cat #37572) was then added to the cells for 1-h incubation at RT, followed by an anti-pERK antibody (cell signaling, 1:1000 dilution in 5% BSA in PBST) incubation overnight at 4° C. and a secondary antibody-HRP (Jackson immunoresearch, 1:3000 dilution in 5% BSA in PBST) incubation at RT for 1 h. PBST wash was carried out after each step three times. Before the addition of a substrate (Advansta ELISABright™), the plate was washed with PBS twice to remove detergent residues. The Cellular pERK level was determined using the microplate reader (Biotek Synergy™ H1) to detect the chemiluminescence signal. IC50 was determined by fitting a 4-parameter sigmoidal concentration-response model.
row,IC50 [nM],Structure (SMILES)
1,< 100,"Cc1c([C@@H](C)/N=c2\nc3n(c4cnc(C5(C(F)F)CC5)cc24)CCC3)cccc1C(F)(F)F [Compound 31, (R,Z)-3-(1-(difluoromethyl)cyclopropyl)-N-(1-(2-methyl-3-(trifluoromethyl)phenyl)ethyl)-8,9-dihydropyrido[4,3-e]pyrrolo[1,2-a]pyrimidin-5(7H)-imine]"
2,< 100,"CC(=O)N1CC=C(c2cc3/c(=N/[C@H](C)c4cccc(C(F)(F)F)c4C)nc4n(c3cn2)CCO4)CC1 [Compound 32, (R,Z)-1-(4-(5-((1-(2-methyl-3-(trifluoromethyl)phenyl)ethyl)imino)-8,9-dihydro-5H-oxazolo[3,2-a]pyrido[4,3-e]pyrimidin-3-yl)-3,6-dihydropyridin-1(2H)-yl)ethan-1-one]"
3,< 100,"CC(=O)N1CCC(F)(c2cc3/c(=N/[C@H](C)c4cccc(C(F)(F)F)c4C)nc4n(c3cn2)CCO4)CC1 [Compound 33, (R,Z)-1-(4-fluoro-4-(5-((1-(2-methyl-3-(trifluoromethyl)phenyl)ethyl)imino)-8,9-dihydro-5H-oxazolo[3,2-a]pyrido[4,3-e]pyrimidin-3-yl)piperidin-1-yl)ethan-1-one]"
4,< 100,CC(=O)N1CC=C(c2cc3/c(=N/[C@H](C)c4cccc(C#N)c4C)nc4n(c3cn2)CCO4)CC1 [Compound 34]
5,< 100,CC(=O)N1CCC(F)(c2cc3/c(=N/[C@H](C)c4cccc(C#N)c4C)nc4n(c3cn2)CCO4)CC1 [Compound 35]
6,< 100,Cc1c([C@@H](C)/N=c2\nc(C)n(C)c3ccc(C4=CCOCC4)cc23)cccc1C(F)(F)F [Compound 36]
7,< 100,CC(=O)N1CC=C(c2ccc3c(c2)/c(=N/[C@H](C)c2cccc(C(F)(F)F)c2C)nc(C)n3C)CC1 [Compound 37]
8,< 100,Cc1c(C#N)cccc1[C@@H](C)/N=c1\nc(C)n(C)c2ccc(C3=CCOCC3)cc12 [Compound 38]
9,< 100,Cc1c([C@@H](C)/N=c2\nc(C)n(C)c3cnc(C4=CCOCC4)cc23)cccc1C(F)(F)F [Compound 39]
10,< 100,Cc1c(C#N)cccc1[C@@H](C)/N=c1\nc(C)n(C)c2cnc(C3=CCC(F)(F)CC3)cc12 [Compound 40]
11,< 100,Cc1c(C#N)cccc1[C@@H](C)/N=c1\nc(C)n(C)c2cnc(C3=CCOCC3)cc12 [Compound 41]
12,< 100,"Cc1c([C@@H](C)/N=c2\nc(C)n(C)c3cnc(C4=CCN(S(C)(=O)=O)CC4)cc23)cccc1C(F)(F)F [Compound 42, (R,Z)-1,2-dimethyl-N-(1-(2-methyl-3-(trifluoromethyl)phenyl)ethyl)-6-(1-(methylsulfonyl)-1,2,3,6-tetrahydropyridin-4-yl)pyrido[3,4-d]pyrimidin-4(1H)-imine]"
13,< 100,"Cc1c([C@@H](C)/N=c2\nc(C)n(C)c3cnc(C4=CCN(C(N)=O)CC4)cc23)cccc1C(F)(F)F [Compound 43, (R,Z)-4-(1,2-dimethyl-4-((1-(2-methyl-3-(trifluoromethyl)phenyl)ethyl)imino)-1,4-dihydropyrido[3,4-d]pyrimidin-6-yl)-3,6-dihydropyridine-1(2H)-carboxamide]"
14,< 100,"CC(=O)N1CCC(F)(c2cc3/c(=N/[C@H](C)c4cccc(C(F)(F)F)c4C)nc(C)n(C)c3cn2)C[C@H]1C (stereo partly drawn) [Compound 45, 1-((2R)-4-((Z)-1,2-dimethyl-4-(((R)-1-(2-methyl-3-(trifluoromethyl)phenyl)ethyl)imino)-1,4-dihydropyrido[3,4-d]pyrimidin-6-yl)-4-fluoro-2-methylpiperidin-1-yl)ethan-1-one]"
15,< 100,"CC(=O)N1CCC(F)(c2cc3/c(=N/[C@H](C)c4cccc(C(F)(F)F)c4C)nc(C)n(C)c3cn2)CC1(C)C (stereo partly drawn) [Compound 46, 1-(4-((Z)-1,2-dimethyl-4-(((R)-1-(2-methyl-3-(trifluoromethyl)phenyl)ethyl)-imino)-1,4-dihydropyrido[3,4-d]pyrimidin-6-yl)-4-fluoro-2,2-dimethylpiperidin-1-yl)ethan-1-one]"
16,< 100,"Cc1c([C@@H](C)/N=c2\nc(C)n(C)c3cnc(-c4ccn5c(C(F)(F)F)ncc5c4)cc23)cccc1C(F)(F)F [Compound 47, (R,Z)-1,2-dimethyl-N-(1-(2-methyl-3-(trifluoromethyl)phenyl)ethyl)-6-(3-(trifluoromethyl)imidazo[1,5-a]pyridin-7-yl)pyrido[3,4-d]pyrimidin-4(1H)-imine]"
17,< 100,"Cc1c([C@@H](C)/N=c2\nc(C)n(C)c3cnc(N4CCC(F)(F)CC4)cc23)cccc1C(F)(F)F [Compound 48, (R,Z)-6-(4,4-difluoropiperidin-1-yl)-1,2-dimethyl-N-(1-(2-methyl-3-(trifluoromethyl)phenyl)ethyl)pyrido[3,4-d]pyrimidin-4(1H)-imine]"
18,< 100,CC(=O)N1CCN(c2cc3/c(=N/[C@H](C)c4cccc(C(F)(F)F)c4C)nc(C)n(C)c3cn2)CC1 [Compound 49]

row,IC50 [nM],Structure (SMILES)
1,< 100,Cc1c([C@@H](C)/N=c2\nc(C)n(C)c3cnc(N4CCC5(CC5)C4)cc23)cccc1C(F)(F)F [Compound 50]
2,< 100,Cc1c([C@@H](C)/N=c2\nc(C)n(C)c3cnc(N4CCC5(CC4)CC5)cc23)cccc1C(F)(F)F [Compound 51]
3,< 100,Cc1c([C@@H](C)/N=c2\nc(C)n(C)c3cnc(N4CCO[C@H](C)C4)cc23)cccc1C(F)(F)F [Compound 52]
4,< 100,CC(=O)N1CCN(c2cnc3c(c2)/c(=N/[C@H](C)c2cccc(C(F)(F)F)c2C)nc(C)n3C)CC1 [Compound 53]
5,< 100,"Cc1c(C#N)cccc1[C@@H](C)/N=c1\nc(C)n(C)c2cnc(N3CCOCC3)cc12 [Compound 54, (R,Z)-3-(1-((1,2-dimethyl-6-morpholinopyrido[3,4-d]pyrimidin-4(1H)-ylidene)amino)ethyl)-2-methylbenzonitrile]"
6,< 100,Cc1c([C@@H](C)/N=c2\nc(C)n(C)c3cnc(N4CCOCC4)cc23)cccc1C(F)(F)F [Compound 55]
7,< 100,CC(=O)N1CCN(c2cc3/c(=N/[C@H](C)c4cccc(C#N)c4C)nc(C)n(C)c3cn2)CC1 [Compound 56]
8,< 100,Cc1c(C#N)cccc1[C@@H](C)/N=c1\nc(C)n(C)c2cnc(N3CCCC3)cc12 [Compound 57]
9,< 100,Cc1c(C#N)cccc1[C@@H](C)/N=c1\nc(C)n(C)c2cnc(N3CCC(F)(F)CC3)cc12 [Compound 59]
10,< 100,Cc1c(C#N)cccc1[C@@H](C)/N=c1\nc(C)n(C)c2cnc(N3CCC4(CC3)CC4)cc12 [Compound 60]
11,< 100,Cc1c(C#N)cccc1[C@@H](C)/N=c1\nc(C)n(C)c2cnc(N3CCO[C@H](C)C3)cc12 [Compound 61]
12,< 100,Cc1c([C@@H](C)/N=c2\nc(C)n(C)c3cnc(N4CCC(F)(F)C4)cc23)cccc1C(F)(F)F [Compound 62]
13,< 100,Cc1c(C#N)cccc1[C@@H](C)/N=c1\nc(C)n(C)c2cnc(N3CCCCC3)cc12 [Compound 64]
14,< 100,Cc1c(C#N)cccc1[C@@H](C)/N=c1\nc(C)n(C)c2cnc(N3CCC4(CC4)C3)cc12 [Compound 65]
15,< 100,Cc1c(C#N)cccc1[C@@H](C)/N=c1\nc(C)n(C)c2cnc(N3CCC(F)(F)C3)cc12 [Compound 66]
16,< 100,Cc1c(C#N)cccc1[C@@H](C)/N=c1\nc(C)n(C)c2cnc(N3CCC(C)(O)CC3)cc12 [Compound 67]
17,< 100,CC(=O)N1CCN(c2cc3/c(=N/[C@H](C)c4cccc(C(F)(F)F)c4C)nc(C)n(C)c3cn2)C(=O)C1 [Compound 68]
